Measured values: patent US12624018B1, “Inhibitors of RIPK2 and medical uses thereof” (Odyssey Therapeutics, Inc., priority 2022, dated 2026)

Target: T1, RIPK2 enzyme (Homo sapiens, UniProt O43353)
T1 construct: purchased Carna 09-128
Assay: RIPK2 inhibition (ADP-Glo Kinase Assay)
Assay type: biochemical
Conditions: RIPK2 5 nM, ATP 150 μM, MBP substrate, read-out: RIPK2 IC50
Procedure, shortened: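 Human RIPK2 (5 nM) preincubated with compound 30 min at room temperature in 50 mM HEPES pH 7.5, 10 mM MgCl2, 2 mM DTT, 1 mM EGTA, 0.01% Brij-35, 0.05% BSA; native swine MBP as substrate. ADP formed quantified by ADP-Glo luminescence; percent inhibition relative to DMSO and no-enzyme controls.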

T1 sequence (O43353 1-299 limits assumed): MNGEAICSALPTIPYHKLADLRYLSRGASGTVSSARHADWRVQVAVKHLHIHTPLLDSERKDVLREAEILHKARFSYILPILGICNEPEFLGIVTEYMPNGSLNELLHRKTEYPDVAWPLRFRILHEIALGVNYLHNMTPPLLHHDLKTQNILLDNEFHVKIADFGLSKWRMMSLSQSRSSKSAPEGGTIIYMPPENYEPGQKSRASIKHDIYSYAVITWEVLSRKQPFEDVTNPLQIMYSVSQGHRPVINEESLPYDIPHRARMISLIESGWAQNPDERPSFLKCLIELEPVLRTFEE

Row | Compound | IC50 [nM]
1 | Cc1cc(CC(=O)Nc2cnn(C(C)(C)C)c2)ccc1Oc1ccnc2ccc(OCC(C)O)cc12 (single isomer, unassigned) [Compound 225, N-(1-(tert-butyl)-1H-pyrazol-4-yl)-2-(4-((6-(2-hydroxy-propoxy)quinolin-4-yl)oxy)-3-methylphenyl) acetamide] | < 2.5
2 | Cc1c(Oc2ccnc3ccc(C4CCNC4=O)cc23)ccc(CC(=O)Nc2cnn(C(C)(C)C)c2)c1F (single isomer, unassigned) [Compound 305, N-(1-(tert-butyl)-1H-pyrazol-4-yl)-2-(2-fluoro-3-methyl-4-((6-(2-oxopyrrolidin-3-yl)quinolin-4-yl)oxy)phenyl)acetamide] | < 2.5
3 | Cc1c(Oc2ccnc3ccc(S(=O)(=O)N4CCCC4)cc23)ccc(CC(=O)Nc2cnn(C(C)(C)C)c2)c1F [Compound 270, N-(1-(tert-butyl)-1H-pyrazol-4-yl)-2-(2-fluoro-3-methyl-4-((6-(pyrrolidin-1-ylsulfonyl)quinolin-4-yl)oxy)phenyl)acetamide] | < 2.5
4 | Cc1cc(CC(=O)Nc2cnn(C(C)(C)C)c2)ccc1Oc1ccnc2ccc(S(=O)(=O)N3CCCC3)cc12 [Compound 257, N-(1-(tert-butyl)-1H-pyrazol-4-yl)-2-(3-methyl-4-((6-(pyrrolidin-1-ylsulfonyl)quinolin-4-yl)oxy)phenyl)acetamide] | < 2.5
5 | Cc1cc(CC(=O)Nc2cnn(C(C)(C)C)c2)ccc1Oc1ccnc2ccc(-c3ncc[nH]c3=O)cc12 [Compound 247, N-(1-(tert-butyl)-1H-pyrazol-4-yl)-2-(3-methyl-4-((6-(3-oxo-3,4-dihydropyrazin-2-yl)quinolin-4-yl)oxy)phenyl)acetamide] | < 2.5
6 | Cc1cc(CC(=O)Nc2cnn(C(C)(C)C)c2)ccc1Oc1ccnc2ccc(OC3CCNCC3O)cc12 (racemic) [Compound 189, N-(1-(tert-butyl)-1H-pyrazol-4-yl)-2-(4-((6-((-3-hydroxy-piperidin-4-yl)oxy)quinolin-4-yl)oxy)-3-methylphenyl) acetamide] | < 2.5
7 | Cc1cc(CC(=O)Nc2cnn(C(C)(C)C)c2)ccc1Oc1ccnc2ccc(OC3CNC3)cc12 [Compound 228, 2-(4-((6-(azetidin-3-yloxy)quinolin-4-yl)oxy)-3-methyl-pheny 1)-N-(1-(tert-butyl)-1H-pyrazol-4-yl)acetamide] | 5.9
8 | Cc1c(Oc2ccnc3ccc(C(=O)NC4CC(C#N)C4)cc23)ccc(CC(=O)Nc2cnn(C(C)(C)C)c2)c1F (single isomer, unassigned) [Compound 404, 4-(4-(2-((1-(tert-butyl)-1H-pyrazol-4-yl)amino)-2-oxoethyl)-3-fluoro-2-methyl-phenoxy)-N-(-3-cyano-cyclobutyl) quinoline-6-carboxamide] | < 2.5
9 | CC(C)(C)n1cc(NC(=O)Cc2ncc(Oc3ccnc4ccc(F)cc34)cn2)cn1 [Compound 4] | 61.9
10 | Cc1c(Oc2ccnc3ccc(C(=O)N4CC(F)C4)cc23)ccc(CC(=O)Nc2cnn(C(C)(C)C)c2)c1F [Compound 345, N-(1-(tert-butyl)-1H-pyrazol-4-yl)-2-(2-fluoro-4-((6-(3-fluoro-azetidine-1-carbonyl)quinolin-4-yl)oxy)-3-methylphenyl) acetamide] | < 2.5
11 | CC(=O)N1CCC(Oc2ccc3nccc(Oc4ccc(CC(=O)Nc5cnn(C(C)(C)C)c5)c(F)c4)c3c2)CC1 [Compound 151, 2-(4-((6-((1-acetyl-piperidin-4-yl)oxy)quinolin-4-yl)oxy)-2-fluoro-phenyl)-N-(1-(tert-butyl)-1H-pyrazol-4-yl)acetamide] | < 2.5
12 | Cc1cc(CC(=O)Nc2cnn(C(C)(C)C)c2)ccc1Oc1ccnc2ccc(-c3ccc[nH]c3=O)cc12 [Compound 245, N-(1-(tert-butyl)-1H-pyrazol-4-yl)-2-(3-methyl-4-((6-(2-oxo-1,2-dihydropyridin-3-yl)quinolin-4-yl)oxy)phenyl)acetamide] | < 2.5
13 | Cc1cc(CC(=O)Nc2cnn(C(C)(C)C)c2)c(F)cc1Oc1ccnc2ccc(C(=O)N3CCC3)cc12 [Compound 369, 2-(4-((6-(azetidine-1-carbonyl)quinolin-4-yl)oxy)-2-fluoro-5-methyl-phenyl)-N-(1-(tert-butyl)-1H-pyrazol-4-yl)acetamide] | < 2.5
14 | CC(C)(C)n1cc(NC(=O)Cc2ncc(Oc3ccnc4ccc(OC5CCNCC5)cc34)cc2F)cn1 [Compound 80, N-(1-(tert-butyl)-1H-pyrazol-4-yl)-2-(3-fluoro-5-((6-(piperidin-4-yloxy)quinolin-4-yl)oxy)pyridin-2-yl)acetamide] | 3.5
15 | Cc1cc(CC(=O)Nc2cnn(C(C)(C)C)c2)ccc1Oc1ccnc2ccc(S(=O)(=O)C3CCOCC3)cc12 [Compound 98, N-(1-(tert-butyl)-1H-pyrazol-4-yl)-2-(3-methyl-4-((6-((tetrahydro-2H-pyran-4-yl)sulfonyl)quinolin-4-yl)oxy)phenyl)acetamide] | < 2.5
16 | Cc1c(Oc2ccnc3ccc(C(=O)NCCO)cc23)ccc(CC(=O)Nc2cnn(C(C)(C)C)c2)c1F [Compound 339, 4-(4-(2-((1-(tert-butyl)-1H-pyrazol-4-yl)amino)-2-oxoethyl)-3-fluoro-2-methyl-phenoxy)-N-(2-hydroxyethyl) quinoline-6-carboxamide] | < 2.5
17 | Cc1cc(CC(=O)Nc2cnn(C(C)(C)C)c2)ccc1Oc1ccnc2ccc(S(=O)(=O)C3CCN(C)CC3)cc12 [Compound 97, N-(1-(tert-butyl)-1H-pyrazol-4-yl)-2-(3-methyl-4-((6-((1-methylpiperidin-4-yl)sulfonyl)quinolin-4-yl)oxy)phenyl)acetamide] | < 2.5
18 | Cc1c(Oc2ccnc3ccc(CC4CCNCC4)cc23)ccc(CC(=O)Nc2cnn(C(C)(C)C)c2)c1F [Compound 407, N-(1-(tert-butyl)-1H-pyrazol-4-yl)-2-(2-fluoro-3-methyl-4-((6-(piperidin-4-ylmethyl)quinolin-4-yl)oxy)phenyl)acetamide] | < 2.5
19 | CN1CC(Oc2ccc3ncnc(Oc4ccc(CC(=O)Nc5cnn(C(C)(C)C)c5)c(F)c4)c3c2)C1 [Compound 18, N-(1-(tert-butyl)-1H-pyrazol-4-yl)-2-(2-fluoro-4-((6-((1-methyl-azetidin-3-yl)oxy)quinazolin-4-yl)oxy)phenyl) acetamide] | 7.9
20 | Cc1cc(CC(=O)Nc2cnn(C(C)(C)C)c2)c(F)cc1Oc1ccnc2ccc(OC3CCN(C)CC3)cc12 [Compound 115, N-(1-(tert-butyl)-1H-pyrazol-4-yl)-2-(2-fluoro-5-methyl-4-((6-((1-methyl-piperidin-4-yl)oxy)quinolin-4-yl)oxy)phenyl) acetamide] | < 2.5
21 | CC(C)(C)n1cc(NC(=O)Cc2ccc(Oc3ccnc4ccc(S(C)(=O)=O)cc34)c(F)c2)cn1 [Compound 163, N-(1-(tert-butyl)-1H-pyrazol-4-yl)-2-(3-fluoro-4-((6-(methylsulfonyl)quinolin-4-yl)oxy)phenyl)acetamide] | < 2.5
22 | COC(C)(C)c1ccc2nccc(Oc3cnc(CC(=O)Nc4cnn(C(C)(C)C)c4)c(F)c3)c2c1 [Compound 138, N-(1-(tert-butyl)-1H-pyrazol-4-yl)-2-(3-fluoro-5-((6-(2-methoxypropan-2-yl)quinolin-4-yl)oxy)pyridin-2-yl)acetamide] | 5.2
23 | CN=S(C)(=O)c1ccc2nccc(Oc3ccc(CC(=O)Nc4cnn(C(C)(C)C)c4)cc3C)c2c1 (stereo not drawn) [Compound 77, N-(1-(tert-butyl)-1H-pyrazol-4-yl)-2-(4-((6-(N,S-dimethylsulfonimidoyl)quinolin-4-yl)oxy)-3-methylphenyl)acetamide] | < 2.5
24 | Cc1cc(CC(=O)Nc2cnn(C(C)(C)C)c2)c(F)cc1Oc1ccnc2ccc(C(=O)N(C)C)cc12 [Compound 361, 4-(4-(2-((1-(tert-butyl)-1H-pyrazol-4-yl)amino)-2-oxoethyl)-5-fluoro-2-methyl-phenoxy)-N,N-dimethyl-quinoline-6-carboxamide] | < 2.5
25 | Cc1cc(CC(=O)Nc2cnn(C(C)(C)C)c2)ccc1Oc1ccnc2ccc(S(=O)(=O)C3CNC3)cc12 [Compound 314, 2-(4-((6-(azetidin-3-ylsulfonyl)quinolin-4-yl)oxy)-3-methylphenyl)-N-(1-(tert-butyl)-1H-pyrazol-4-yl)acetamide] | < 2.5
26 | COc1ccc2ncnc(Oc3cnc(CC(=O)Nc4cnn(C(C)(C)C)c4)c(F)c3)c2c1 [Compound 9, N-(1-(tert-butyl)-1H-pyrazol-4-yl)-2-(3-fluoro-5-((6-methoxyquinazolin-4-yl)oxy)pyridin-2-yl)acetamide] | 21.8
27 | Cc1cc(CC(=O)Nc2cnn(C(C)(C)C)c2)c(F)cc1Oc1ccnc2ccc(C(=O)O)cc12 [Compound 358, 4-(4-(2-((1-(tert-butyl)-1H-pyrazol-4-yl)amino)-2-oxoethyl)-5-fluoro-2-methyl-phenoxy) quinoline-6-carboxylic acid] | < 2.5
28 | Cc1c(Oc2ccnc3ccc(N4C(=O)CCC4C)cc23)ccc(CC(=O)Nc2cnn(C(C)(C)C)c2)c1F (single isomer, unassigned) [Compound 297, N-(1-(tert-butyl)-1H-pyrazol-4-yl)-2-(2-fluoro-3-methyl-4-((6-(2-methyl-5-oxopyrrolidin-1-yl)quinolin-4-yl)oxy)phenyl) acetamide] | < 2.5
29 | C[S+]([O-])c1ccc2ncnc(Oc3ccc(CC(=O)Nc4cnn(C(C)(C)C)c4)c(F)c3)c2c1 (stereo not drawn) [Compound 44, N-(1-(tert-butyl)-1H-pyrazol-4-yl)-2-(2-fluoro-4-((6-(methylsulfinyl)quinazolin-4-yl)oxy)phenyl)acetamide] | 26.2
30 | Cc1cc(CC(=O)Nc2cnn(C(C)(C)C)c2)ccc1Oc1ccnc2ccc(OC3CCN(C4COC4)CC3)cc12 [Compound 96, N-(1-(tert-butyl)-1H-pyrazol-4-yl)-2-(3-methyl-4-((6-((1-(oxetan-3-yl)piperidin-4-yl)oxy)quinolin-4-yl)oxy)phenyl) acetamide] | < 2.5
